Reference: patent publication US10259810B2, “N-sulfonylated pyrazolo[3,4-b]pyridin-6-carboxamides and method of use” (AbbVie S.à.r.l., priority 2015, dated 2019)

How the values were obtained:
ΔF508-CFTR [1] = molecular target: T1, ΔF508-CFTR (Homo sapiens, UniProt P13569, DEL508-508); experiment: CFTR cell surface levels using HRP-tagged ΔF508-CFTR expressing CFBE cells, intrinsic corrector capacity; format: cell-based; design: % Activation: concentration or dose not given beside the values; details: HRP-tagged ΔF508-CFTR expressing CFBE41o- cells, compound alone (intrinsic corrector capacity), 20 hours at 33° C.; for EC50: read-out: EC50
T1 construct: host or cells: CFBE41o-, doxycycline-inducible
T1 sequence (P13569 with tags, fused parts or gaps DEL508-508): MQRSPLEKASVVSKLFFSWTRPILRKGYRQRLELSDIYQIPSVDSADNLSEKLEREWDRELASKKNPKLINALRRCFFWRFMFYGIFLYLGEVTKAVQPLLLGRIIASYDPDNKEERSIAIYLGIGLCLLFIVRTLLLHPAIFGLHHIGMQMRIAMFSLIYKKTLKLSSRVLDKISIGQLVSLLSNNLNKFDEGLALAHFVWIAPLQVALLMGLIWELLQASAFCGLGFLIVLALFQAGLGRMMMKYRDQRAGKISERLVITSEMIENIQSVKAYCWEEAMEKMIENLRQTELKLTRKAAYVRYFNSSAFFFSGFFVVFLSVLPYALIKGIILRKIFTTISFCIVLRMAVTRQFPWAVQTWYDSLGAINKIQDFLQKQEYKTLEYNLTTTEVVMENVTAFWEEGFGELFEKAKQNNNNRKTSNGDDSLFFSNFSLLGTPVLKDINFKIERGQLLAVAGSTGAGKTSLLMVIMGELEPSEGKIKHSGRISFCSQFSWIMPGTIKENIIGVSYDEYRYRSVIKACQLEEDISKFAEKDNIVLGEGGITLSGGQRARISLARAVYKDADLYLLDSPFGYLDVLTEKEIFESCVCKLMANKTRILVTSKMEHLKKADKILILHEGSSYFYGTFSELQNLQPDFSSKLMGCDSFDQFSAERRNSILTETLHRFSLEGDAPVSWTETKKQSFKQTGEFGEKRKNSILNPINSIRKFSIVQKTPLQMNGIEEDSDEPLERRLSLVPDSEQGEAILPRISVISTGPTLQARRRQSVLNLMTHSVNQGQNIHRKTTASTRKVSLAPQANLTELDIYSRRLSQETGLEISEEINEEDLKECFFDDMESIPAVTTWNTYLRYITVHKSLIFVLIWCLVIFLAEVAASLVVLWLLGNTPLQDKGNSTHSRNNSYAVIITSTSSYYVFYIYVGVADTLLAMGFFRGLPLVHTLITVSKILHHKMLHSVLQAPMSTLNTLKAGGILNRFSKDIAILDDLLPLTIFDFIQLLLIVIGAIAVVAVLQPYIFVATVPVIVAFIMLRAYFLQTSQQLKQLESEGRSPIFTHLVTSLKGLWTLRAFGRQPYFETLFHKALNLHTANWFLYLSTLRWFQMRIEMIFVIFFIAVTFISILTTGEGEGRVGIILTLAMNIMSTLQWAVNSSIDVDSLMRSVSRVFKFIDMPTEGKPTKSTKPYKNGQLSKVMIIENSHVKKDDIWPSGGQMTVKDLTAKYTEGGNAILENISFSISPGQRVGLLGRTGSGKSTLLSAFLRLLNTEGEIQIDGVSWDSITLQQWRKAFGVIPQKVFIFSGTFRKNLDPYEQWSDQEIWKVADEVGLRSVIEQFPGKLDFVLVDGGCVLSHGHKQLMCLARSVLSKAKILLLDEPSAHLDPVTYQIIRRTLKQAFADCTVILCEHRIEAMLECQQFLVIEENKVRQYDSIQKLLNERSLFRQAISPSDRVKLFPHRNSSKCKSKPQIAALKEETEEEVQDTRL
How it was run: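 Read-out: chemiluminescent HRP activity of ECL4-HRP-tagged ΔF508-CFTR at the cell surface, 15 min substrate in dark. Normalized as 100×(sample−DMSO)/(positive control−DMSO).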

ΔF508-CFTR [2] = molecular target: T1, ΔF508-CFTR; experiment: CFTR cell surface levels using HRP-tagged ΔF508-CFTR expressing CFBE cells, in the presence of a co-corrector; format: cell-based; details: HRP-tagged ΔF508-CFTR CFBE cells, in the presence of 3 μM co-corrector; for EC50: read-out: EC50
How it was run: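 Chemiluminescent read-out of surface HRP (15 min, dark) after PBS washes. Activity is normalized as 100×(sample−DMSO)/(3 μM co-corrector alone−DMSO).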

SMILES | % Activation (ΔF508-CFTR [1]) [%] | EC50 (ΔF508-CFTR [1]) [nM] | % Activation (ΔF508-CFTR [2]) [%] | EC50 (ΔF508-CFTR [2]) [nM]
CCS(=O)(=O)NC(=O)c1cc(-c2ccc(N3CCOCC3)cc2)c2c(C)nn(-c3cccc(F)c3)c2n1 [Compound 68, N-(ethanesulfonyl)-1-(3-fluorophenyl)-3-methyl-4-[4-(morpholin-4-yl)phenyl]-1H-pyrazolo[3,4-b]pyridine-6-carboxamide] | 253.3 | 1080 | 456.6 | 847
Cc1nn(-c2ccc(F)c(F)c2)c2nc(C(=O)NS(C)(=O)=O)cc(-c3ccc(N4CCOCC4)cc3)c12 [Compound 25, 1-(3,4-difluorophenyl)-N-(methanesulfonyl)-3-methyl-4-[4-(morpholin-4-yl)phenyl]-1H-pyrazolo[3,4-b]pyridine-6-carboxamide] | 247.23 | 997 | 437.17 | 640
CC(C)c1nn(C2CCCCC2)c2nc(C(=O)NS(C)(=O)=O)cc(-c3ccc(N4CCOCC4)nc3)c12 [Compound 44, 1-cyclohexyl-N-(methanesulfonyl)-4-[6-(morpholin-4-yl)pyridin-3-yl]-3-(propan-2-yl)-1H-pyrazolo[3,4-b]pyridine-6-carboxamide] | 203.87 | 404 | 412.63 | 276
CC1(C)CC(c2nn(-c3ccccc3)c3nc(C(=O)NS(C)(=O)=O)cc(-c4ccc(N5CCC(C#N)CC5)nc4)c23)C1 [Compound 196, 4-[6-(4-cyanopiperidin-1-yl)pyridin-3-yl]-3-(3,3-dimethylcyclobutyl)-N-(methanesulfonyl)-1-phenyl-1H-pyrazolo[3,4-b]pyridine-6-carboxamide] | 188.47 | 339 | 387.1 | 231
COCCS(=O)(=O)NC(=O)c1cc(N2CCC(N3CCOCC3)CC2)c2c(C3CCC3)nn(-c3ccccc3)c2n1 [Compound 438, 3-cyclobutyl-N-(2-methoxyethanesulfonyl)-4-[4-(morpholin-4-yl)piperidin-1-yl]-1-phenyl-1H-pyrazolo[3,4-b]pyridine-6-carboxamide] | 337 | 392 | 541.5 | 380
C[C@@H]1CN(c2cc(C(=O)NS(=O)(=O)N(C)C)nc3c2c(C2CCC2)nn3C2CCCCC2)CCN1Cc1ccccc1 [Compound 582, 4-[(3R)-4-benzyl-3-methylpiperazin-1-yl]-3-cyclobutyl-1-cyclohexyl-N-(dimethylsulfamoyl)-1H-pyrazolo[3,4-b]pyridine-6-carboxamide] | 75.38 | 370 | 245.15 | 271
CN(C)S(=O)(=O)NC(=O)c1cc(C2CCN(C3CCOCC3)CC2)c2c(C3CCC3)nn(-c3ccc(F)cc3)c2n1 [Compound 612, 3-cyclobutyl-N-(dimethylsulfamoyl)-1-(4-fluorophenyl)-4-[1-(oxan-4-yl)piperidin-4-yl]-1H-pyrazolo[3,4-b]pyridine-6-carboxamide] | 108.7 | 876 | 320.8 | 3330
COC(=O)N1CC(c2nn(-c3cc(F)cc(F)c3)c3nc(C(=O)NS(C)(=O)=O)cc(-c4ccc(NC(C)=O)cc4)c23)C1 [Compound 107, methyl 3-{4-(4-acetamidophenyl)-1-(3,5-difluorophenyl)-6-[(methanesulfonyl)carbamoyl]-1H-pyrazolo[3,4-b]pyridin-3-yl}azetidine-1-carboxylate] | 64.54 | 3340 | 219.4 | 3340
CS(=O)(=O)NC(=O)c1cc(-c2ccc(N3CCC(C#N)CC3)nc2)c2c(n1)n(-c1ccccc1)nc2[C@H]1C[C@H](C)C1 [Compound 257, 4-[6-(4-cyanopiperidin-1-yl)pyridin-3-yl]-N-(methanesulfonyl)-3-(trans-3-methylcyclobutyl)-1-phenyl-1H-pyrazolo[3,4-b]pyridine-6-carboxamide] | 272.4 | 370 | 451.25 | 74.3
COCC1CCN(c2cc(C(=O)NS(=O)(=O)N3CCCN(C(C)=O)CC3)nc3c2c(C2CCC2)nn3-c2ccccc2)CC1 [Compound 394, N-(4-acetyl-1,4-diazepane-1-sulfonyl)-3-cyclobutyl-4-[4-(methoxymethyl)piperidin-1-yl]-1-phenyl-1H-pyrazolo[3,4-b]pyridine-6-carboxamide] | 194.35 | 99.5 | 366.87 | 47.9
CS(=O)(=O)NC(=O)c1cc(N2CC3CC3C2)c2c(C3CCC3)nn(-c3ccccc3)c2n1 (stereo not drawn) [Compound 186, 4-(3-azabicyclo[3.1.0]hexan-3-yl)-3-cyclobutyl-N-(methanesulfonyl)-1-phenyl-1H-pyrazolo[3,4-b]pyridine-6-carboxamide] | 209.57 | 616 | 381.87 | 531
CCS(=O)(=O)NC(=O)c1cc(-c2ccc(N3CCOCC3)cc2)c2c(C)nn(-c3cccc(OC)c3)c2n1 [Compound 73, N-(ethanesulfonyl)-1-(3-methoxyphenyl)-3-methyl-4-[4-(morpholin-4-yl)phenyl]-1H-pyrazolo[3,4-b]pyridine-6-carboxamide] | 254.1 | 657 | 423.35 | 490
O=C(NS(=O)(=O)N1CCC(F)CC1)c1cc(N2CCC(CN3CCCC3)CC2)c2c(C3CCC3)nn(-c3ccccc3)c2n1 [Compound 459, 3-cyclobutyl-N-(4-fluoropiperidine-1-sulfonyl)-1-phenyl-4-{4-[(pyrrolidin-1-yl)methyl]piperidin-1-yl}-1H-pyrazolo[3,4-b]pyridine-6-carboxamide] | 225.65 | 149 | 388.87 | 96.1
COCC1CCN(c2cc(C(=O)NS(=O)(=O)N(C)C)nc3c2c(C2CCC2)nn3-c2ccnc(C3CCOCC3)c2)CC1 [Compound 531, 3-cyclobutyl-N-(dimethylsulfamoyl)-4-[4-(methoxymethyl)piperidin-1-yl]-1-[2-(oxan-4-yl)pyridin-4-yl]-1H-pyrazolo[3,4-b]pyridine-6-carboxamide] | 182.8 | 234 | 349.65 | 63.5
CN(C)S(=O)(=O)NC(=O)c1cc(OCC2CCN(C3CC3)CC2)c2c(C3CCC3)nn(-c3ccc(F)cc3)c2n1 [Compound 616, 3-cyclobutyl-4-[(1-cyclopropylpiperidin-4-yl)methoxy]-N-(dimethylsulfamoyl)-1-(4-fluorophenyl)-1H-pyrazolo[3,4-b]pyridine-6-carboxamide] | 144.05 | 348 | 341.15 | 294
CN(C)S(=O)(=O)NC(=O)c1cc(N2CCC(N3CCOCC3)CC2)c2c(C3CCC3)nn(-c3cccc(OC(F)F)c3)c2n1 [Compound 652, 3-cyclobutyl-1-[3-(difluoromethoxy)phenyl]-N-(dimethylsulfamoyl)-4-[4-(morpholin-4-yl)piperidin-1-yl]-1H-pyrazolo[3,4-b]pyridine-6-carboxamide] | 289.03 | 84.1 | 499.65 | 24.9
CCN(C)S(=O)(=O)NC(=O)c1cc(N2CCC(N3CCOCC3)CC2)c2c(C3CCC3)nn(-c3ccc(F)cc3)c2n1 [Compound 483, 3-cyclobutyl-N-[ethyl(methyl)sulfamoyl]-1-(4-fluorophenyl)-4-[4-(morpholin-4-yl)piperidin-1-yl]-1H-pyrazolo[3,4-b]pyridine-6-carboxamide] | 212.7 | 84.9 | 438.2 | 56.1
CS(=O)(=O)NC(=O)c1cc(-c2ccc(N3CCC(C#N)CC3)nc2)c2c(OC3CCOC3)nn(-c3ccccc3)c2n1 (stereo not drawn) [Compound 277, 4-[6-(4-cyanopiperidin-1-yl)pyridin-3-yl]-N-(methanesulfonyl)-3-[(oxolan-3-yl)oxy]-1-phenyl-1H-pyrazolo[3,4-b]pyridine-6-carboxamide] | 155.4 | 251 | 355.4 | 127
CCCN(C)S(=O)(=O)NC(=O)c1cc(OCC2CCOCC2)c2c(C3CCC3)nn(-c3ccccc3)c2n1 [Compound 354, 3-cyclobutyl-N-[methyl(propyl)sulfamoyl]-4-[(oxan-4-yl)methoxy]-1-phenyl-1H-pyrazolo[3,4-b]pyridine-6-carboxamide] | 113.7 | 123 | 351 | 232
O=C(NS(=O)(=O)C1COC1)c1cc(N2CCC(N3CCOCC3)CC2)c2c(C3CCC3)nn(-c3ccc(F)cc3)c2n1 [Compound 506, 3-cyclobutyl-1-(4-fluorophenyl)-4-[4-(morpholin-4-yl)piperidin-1-yl]-N-(oxetane-3-sulfonyl)-1H-pyrazolo[3,4-b]pyridine-6-carboxamide] | 144.1 | 3330 | 308.95 | 941
CC(C)c1nn(-c2ccc(F)cc2)c2nc(C(=O)NS(C)(=O)=O)cc(N3CC4(CCCOC4)C3)c12 [Compound 179, 1-(4-fluorophenyl)-N-(methanesulfonyl)-4-(6-oxa-2-azaspiro[3.5]nonan-2-yl)-3-(propan-2-yl)-1H-pyrazolo[3,4-b]pyridine-6-carboxamide] | 89.165 | 879 | 248.85 | 406
